According to patent publication US8871753B2, “Macrocyclic compounds and their use as kinase inhibitors” (Incyte Corporation, priority 2008, dated 2014):
pIC50: −log10 of the molar value. Where a name gives a salt, the structure may show the parent alone. Read-outs that look alike come from different tables or passages of the source.

Tests used:
Assay type in all cases: biochemical
[1] = molecular target: T1, Recombinant Human Anaplastic Lymphoma Kinase (Homo sapiens, UniProt Q9UM73); assay: ALK HTRF kinase assay
T1 construct: purchased Invitrogen, Carlsbad, Calif
T1 sequence (Q9UM73 19-1620): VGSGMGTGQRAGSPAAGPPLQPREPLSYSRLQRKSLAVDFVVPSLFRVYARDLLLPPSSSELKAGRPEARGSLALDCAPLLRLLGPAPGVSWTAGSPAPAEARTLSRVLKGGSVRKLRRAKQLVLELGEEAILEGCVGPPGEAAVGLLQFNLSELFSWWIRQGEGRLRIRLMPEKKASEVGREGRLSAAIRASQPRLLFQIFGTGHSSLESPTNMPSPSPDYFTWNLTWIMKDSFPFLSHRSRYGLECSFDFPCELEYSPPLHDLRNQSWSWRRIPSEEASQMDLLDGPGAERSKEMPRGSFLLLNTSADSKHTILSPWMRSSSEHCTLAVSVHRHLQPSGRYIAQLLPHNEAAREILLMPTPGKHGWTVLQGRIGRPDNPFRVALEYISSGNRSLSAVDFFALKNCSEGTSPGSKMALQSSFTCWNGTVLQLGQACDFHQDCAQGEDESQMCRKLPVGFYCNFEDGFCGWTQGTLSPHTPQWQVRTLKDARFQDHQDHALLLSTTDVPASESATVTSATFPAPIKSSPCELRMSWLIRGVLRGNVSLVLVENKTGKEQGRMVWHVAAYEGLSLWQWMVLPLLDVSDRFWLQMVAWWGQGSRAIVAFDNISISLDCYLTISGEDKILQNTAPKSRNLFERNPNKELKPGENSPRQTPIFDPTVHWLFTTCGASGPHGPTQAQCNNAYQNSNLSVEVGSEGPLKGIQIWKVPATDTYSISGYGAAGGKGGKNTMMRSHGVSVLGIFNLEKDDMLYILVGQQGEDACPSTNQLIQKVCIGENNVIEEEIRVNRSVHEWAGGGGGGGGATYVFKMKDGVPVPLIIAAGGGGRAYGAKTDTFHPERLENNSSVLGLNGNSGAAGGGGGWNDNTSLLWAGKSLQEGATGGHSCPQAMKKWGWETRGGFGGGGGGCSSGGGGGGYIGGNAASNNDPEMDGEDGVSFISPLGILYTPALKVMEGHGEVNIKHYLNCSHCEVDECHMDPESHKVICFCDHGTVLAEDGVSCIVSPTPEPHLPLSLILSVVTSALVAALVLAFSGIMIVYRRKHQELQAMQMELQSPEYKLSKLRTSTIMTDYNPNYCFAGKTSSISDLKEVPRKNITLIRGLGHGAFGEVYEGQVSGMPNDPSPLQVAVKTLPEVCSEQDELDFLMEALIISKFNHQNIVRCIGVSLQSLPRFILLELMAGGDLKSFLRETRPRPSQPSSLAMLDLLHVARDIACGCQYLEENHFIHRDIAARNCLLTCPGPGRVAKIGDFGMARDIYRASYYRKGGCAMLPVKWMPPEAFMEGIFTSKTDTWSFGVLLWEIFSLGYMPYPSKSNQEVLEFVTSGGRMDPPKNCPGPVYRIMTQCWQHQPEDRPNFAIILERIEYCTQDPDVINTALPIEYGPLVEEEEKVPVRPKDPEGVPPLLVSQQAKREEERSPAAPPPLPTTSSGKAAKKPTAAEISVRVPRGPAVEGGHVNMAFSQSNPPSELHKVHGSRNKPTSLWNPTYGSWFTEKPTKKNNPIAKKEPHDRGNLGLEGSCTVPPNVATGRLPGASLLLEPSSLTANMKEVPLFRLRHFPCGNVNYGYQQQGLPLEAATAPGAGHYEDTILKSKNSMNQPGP
Summary of the method: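 Compounds were incubated with recombinant human ALK and a biotin-tagged peptide substrate. Product was captured with streptavidin-APC and probed with a europium anti-phosphotyrosine antibody, and plates were read for time-resolved fluorescence. Dose-response data were fitted to derive IC50.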

[2] = molecular target: T2, human JAK3 (a.a. 781-1124) (Homo sapiens, UniProt P52333); assay: In vitro JAK kinase assay (HTRF, phosphorylation of a biotinylated peptide), JAK3
T2 construct: JAK3 (a.a. 781-1124); His tag (N); made in house; host or cells: insect cells (baculovirus)
T2 sequence (P52333 781-1124): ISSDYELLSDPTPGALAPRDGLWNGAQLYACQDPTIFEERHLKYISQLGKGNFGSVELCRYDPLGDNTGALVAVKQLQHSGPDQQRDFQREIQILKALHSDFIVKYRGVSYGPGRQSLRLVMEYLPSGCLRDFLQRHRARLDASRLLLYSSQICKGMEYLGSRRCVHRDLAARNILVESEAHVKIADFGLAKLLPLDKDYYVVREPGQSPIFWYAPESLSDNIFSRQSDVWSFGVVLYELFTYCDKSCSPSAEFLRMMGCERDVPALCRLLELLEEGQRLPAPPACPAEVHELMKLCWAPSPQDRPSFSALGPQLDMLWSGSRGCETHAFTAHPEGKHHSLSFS
Summary of the method: (§1)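 Kinase reactions ran at room temperature for 1 h with ATP matched per isoform (JAK1 90 μM, JAK2 30 μM, JAK3 3 μM). After an EDTA stop, the phosphorylated biotin-peptide was read by HTRF using Eu-Py20 and SA-APC after 40 min binding.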

[3] = molecular target: T3, human JAK2 (a.a. 828-1132) (Homo sapiens, UniProt O60674); assay: In vitro JAK kinase assay (HTRF, phosphorylation of a biotinylated peptide), JAK2
T3 construct: JAK2 (a.a. 828-1132); His tag (N); made in house; host or cells: insect cells (baculovirus)
T3 sequence (O60674 828-1132): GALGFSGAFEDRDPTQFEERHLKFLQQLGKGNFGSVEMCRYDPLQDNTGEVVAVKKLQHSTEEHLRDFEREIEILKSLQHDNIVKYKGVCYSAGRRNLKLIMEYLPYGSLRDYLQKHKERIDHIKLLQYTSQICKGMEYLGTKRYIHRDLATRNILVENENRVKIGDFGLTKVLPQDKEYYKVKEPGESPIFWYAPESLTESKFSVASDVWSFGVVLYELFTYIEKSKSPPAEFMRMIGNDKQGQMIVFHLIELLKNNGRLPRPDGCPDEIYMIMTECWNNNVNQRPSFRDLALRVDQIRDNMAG
Summary of the method: as §1

[4] = molecular target: T4, human JAK1 (a.a. 837-1142) (Homo sapiens, UniProt P23458); assay: In vitro JAK kinase assay (HTRF, phosphorylation of a biotinylated peptide), JAK1; conditions: read-out: JAK1 IC50
T4 construct: human JAK1 (a.a. 837-1142); His tag (N); made in house; host or cells: insect cells (baculovirus)
T4 sequence (P23458 849-1154): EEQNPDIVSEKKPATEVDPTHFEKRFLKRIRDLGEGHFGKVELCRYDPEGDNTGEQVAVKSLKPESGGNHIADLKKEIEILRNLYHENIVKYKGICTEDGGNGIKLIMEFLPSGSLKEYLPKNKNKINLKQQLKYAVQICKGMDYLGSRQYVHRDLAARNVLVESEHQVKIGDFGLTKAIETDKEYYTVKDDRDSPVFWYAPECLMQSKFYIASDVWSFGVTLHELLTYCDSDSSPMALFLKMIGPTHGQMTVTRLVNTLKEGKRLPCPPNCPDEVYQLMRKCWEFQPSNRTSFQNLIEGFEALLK
Summary of the method: as §1

[5] = molecular target: TYK2 (Homo sapiens, UniProt P29597); assay: TYK2 kinase inhibition (Table A1)
Chain of TYK2 (P29597 whole entry): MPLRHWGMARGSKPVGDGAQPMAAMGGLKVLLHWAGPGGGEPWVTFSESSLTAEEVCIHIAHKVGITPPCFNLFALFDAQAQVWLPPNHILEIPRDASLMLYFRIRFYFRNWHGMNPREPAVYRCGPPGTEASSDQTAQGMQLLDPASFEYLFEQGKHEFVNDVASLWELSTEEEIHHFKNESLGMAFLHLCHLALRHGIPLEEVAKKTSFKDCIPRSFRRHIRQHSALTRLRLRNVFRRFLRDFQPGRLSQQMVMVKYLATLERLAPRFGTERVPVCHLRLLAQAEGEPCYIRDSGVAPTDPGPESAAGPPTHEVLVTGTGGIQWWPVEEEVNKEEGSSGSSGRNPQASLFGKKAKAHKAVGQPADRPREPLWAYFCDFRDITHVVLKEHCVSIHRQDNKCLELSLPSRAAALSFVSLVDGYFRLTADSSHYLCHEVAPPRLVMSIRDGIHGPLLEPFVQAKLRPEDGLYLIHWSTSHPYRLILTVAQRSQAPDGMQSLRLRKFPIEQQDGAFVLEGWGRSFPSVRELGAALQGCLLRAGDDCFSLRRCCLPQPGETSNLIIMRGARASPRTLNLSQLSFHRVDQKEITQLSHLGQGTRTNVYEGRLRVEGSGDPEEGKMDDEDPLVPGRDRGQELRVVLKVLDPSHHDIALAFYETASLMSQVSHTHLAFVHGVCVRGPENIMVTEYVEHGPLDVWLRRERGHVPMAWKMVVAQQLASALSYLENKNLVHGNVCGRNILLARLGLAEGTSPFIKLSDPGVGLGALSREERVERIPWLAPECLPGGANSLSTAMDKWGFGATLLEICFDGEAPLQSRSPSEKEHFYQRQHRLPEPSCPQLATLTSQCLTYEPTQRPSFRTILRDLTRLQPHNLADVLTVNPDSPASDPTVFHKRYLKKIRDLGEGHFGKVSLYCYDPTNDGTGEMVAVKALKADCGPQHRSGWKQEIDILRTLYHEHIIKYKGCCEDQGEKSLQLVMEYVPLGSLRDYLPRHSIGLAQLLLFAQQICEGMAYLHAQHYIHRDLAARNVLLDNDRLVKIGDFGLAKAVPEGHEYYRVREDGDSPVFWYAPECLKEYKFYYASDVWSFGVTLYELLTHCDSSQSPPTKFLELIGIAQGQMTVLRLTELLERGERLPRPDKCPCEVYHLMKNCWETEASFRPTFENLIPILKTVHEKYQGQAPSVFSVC

[6] = compound at 500 nM or 1 mM, 90 μM ATP
[7] = method AA1 (3 μM ATP) or AA2 (1000 μM ATP), not stated per value
[8] = method AA1 (30 μM ATP) or AA2 (1000 μM ATP), not stated per value
[9] = method AA1 (90 μM ATP) or AA2 (1000 μM ATP), not stated per value
[10] = Table B1, cells without percent sign
[11] = compound at a concentration of 500 nM or 1 mM (not specified), cells shown as percentage

Row | Structure (SMILES) | ALK % of inhibition at a concentration of 500 nM or 1 mM [1, 6] [%] | pIC50 [2, 7] | pIC50 [3, 8] | pIC50 [4, 9] | pIC50 [5] | pIC50 ([2]; Table B1) | pIC50 ([3]; Table B1) | pIC50 ([4]; Table B1) | pIC50 ([5]; Table B1) | other results
1 | CC(C)NC(=O)N1CCC(CC(=O)Nc2ccc3cc2CCc2cccc(c2)Nc2ncc(Cl)c(n2)N3)CC1 [Example A84, 4-(2-{[6-Chloro-2,4,8,22-tetraazatetracyclo[14.3.1.1(3,7).1(9,13)]docosa-1(20),3(22),4,6,9(21),10,12,16,18-nonaen-12-yl]amino}-2-oxoethyl)-N-isopropylpiperidine-1-carboxamide trifluoroacetate] | 31 | 7.31 | 8.05 | 7.62 | 7.80 |  |  |  |  | 
2 | Cc1noc(C)c1S(=O)(=O)Nc1ccc2cc1CCc1cccc(c1)Nc1ncc(Cl)c(n1)N2 [Example B152, N-[6-Chloro-2,4,8,22-tetraazatetracyclo[14.3.1.1(3,7).1(9,13)]docosa-1(20),3(22),4,6,9(21),10,12,16,18-nonaen-12-yl]-3,5-dimethylisoxazole-4-sulfonamide trifluoroacetate] |  |  |  |  |  | 7.96 | 9.85 | 9.46 | 9.30 | pIC50 [1, 10]: 6.37
3 | O=C(Nc1ccc2cc1CCc1cccc(c1)Nc1ncc(Cl)c(n1)N2)NC1CCNCC1 [Example B181, N-[6-Chloro-2,4,8,22-tetraazatetracyclo[14.3.1.1(3,7).1(9,13)]docosa-1(20),3(22),4,6,9(21),10,12,16,18-nonaen-12-yl]-N′-piperidin-4-ylurea dihydrochloride] |  |  |  |  |  | 6.63 | 6.75 | 7.15 | 6.65 | ALK % of inhibition at a concentration of 500 nM or 1 mM [1, 11]: 3.7%
4 | Cc1noc(C)c1C(=O)N1CCC(CC(=O)Nc2ccc3cc2CCc2cncc(c2)Nc2ncc(Cl)c(n2)N3)CC1 [Example A156, N-[6-Chloro-2,4,8,18,22-pentaazatetracyclo[14.3.1.1(3,7).1(9,13)]docosa-1(20),3(22),4,6,9(21),10,12,16,18-nonaen-12-yl]-2-{1-[(3,5-dimethylisoxazol-4-yl)carbonyl]piperidin-4-yl}acetamide bis(trifluoroacetate)] | 17 | < 5.00 | 6.04 | 7.02 | 5.60 |  |  |  |  | 
5 | CC(=O)N1CCC(CC(=O)Nc2ccc3cc2CCc2cccc(c2)Nc2ncc(Cl)c(n2)N3)CC1 [Example A55, 2-(1-Acetylpiperidin-4-yl)-N-[6-chloro-2,4,8,22-tetraazatetracyclo[14.3.1.1(3,7).1(9,13)]docosa-1(20),3(22),4,6,9(21),10,12,16,18-nonaen-12-yl]acetamide trifluoroacetate] | 23 | 7.27 | 8.62 | 8.82 | 8.64 |  |  |  |  | 
6 | O=[N+]([O-])c1ccc(CN2CCN(Cc3cc4cc(c3)Nc3nc(ncc3Cl)Nc3cccc(c3)CC4)CC2)cc1 [Example B194, 6-Chloro-11-{[4-(4-nitrobenzyl)piperazin-1-yl]methyl}-2,4,8,22-tetraazatetracyclo[14.3.1.1(3,7).1(9,13)]docosa-1(20),3(22),4,6,9(21),10,12,16,18-nonaene tris(trifluoroacetate)] |  |  |  |  |  | 6.97 | 7.92 | 7.44 | 6.60 | pIC50 [1, 10]: < 6.00
7 | O=C(CC1CCN(C(=O)c2ccc(F)cc2)CC1)Nc1ccc2cc1CCc1cncc(c1)Nc1ncc(Cl)c(n1)N2 [Example A193, N-[6-Chloro-2,4,8,18,22-pentaazatetracyclo[14.3.1.1(3,7).1(9,13)]docosa-1(20),3(22),4,6,9(21),10,12,16,18-nonaen-12-yl]-2-[1-(4-fluorobenzoyl)piperidin-4-yl]acetamide bis(trifluoroacetate)] | 31 | < 6.70 | < 6.70 | 7.92 | < 6.70 |  |  |  |  | 
8 | CC(C)(C)NC(=O)N1CCC(CC(=O)Nc2ccc3cc2CCc2cncc(c2)Nc2ncc(Cl)c(n2)N3)CC1 [Example A113, N-(tert-Butyl)-4-(2-{[6-chloro-2,4,8,18,22-pentaazatetracyclo[14.3.1.1(3,7).1(9,13)]docosa-1(20),3(22),4,6,9(21),10,12,16,18-nonaen-12-yl]amino}-2-oxoethyl)piperidine-1-carboxamide bis(trifluoroacetate)] | 14 | 6.62 | 7.27 | 7.77 | 7.21 |  |  |  |  | 
9 | [O-][S+]1Cc2cccc(c2)Nc2nc(ncc2Cl)Nc2cccc1c2 (centres unmarked) [Example D3, 6-Chloro-15-thia-2,4,8,22-tetraazatetracyclo[14.3.1.1(3,7).1(9,13)]docosa-1(20),3(22),4,6,9(21),10,12,16,18-nonaene 15-oxide trifluoroacetate] |  |  |  |  |  |  |  |  |  | pIC50 ([1]; Table D1, 90 μM ATP): 5.96; pIC50 ([2]; Table D1): 7.89; pIC50 ([3]; Table D1): 8.20; pIC50 ([4]; Table D1): 7.60; pIC50 ([5]; Table D1): 7.40
10 | O=C(Nc1cccc(F)c1)Nc1cc2cc(c1)Nc1nc(ncc1Cl)Nc1cccc(c1)CC2 [Example B214, N-[6-Chloro-2,4,8,22-tetraazatetracyclo[14.3.1.1(3,7).1(9,13)]docosa-1(20),3(22),4,6,9(21),10,12,16,18-nonaen-11-yl]-N′-(3-fluorophenyl)urea trifluoroacetate] |  |  |  |  |  | 6.64 | 6.55 | < 6.00 | < 6.00 | ALK % of inhibition at a concentration of 500 nM or 1 mM [1, 11]: 39%
11 | O=C(CC1CCN(C(=O)c2ncco2)CC1)Nc1ccc2cc1CCc1cncc(c1)Nc1ncc(Cl)c(n1)N2 [Example A139, N-[6-Chloro-2,4,8,18,22-pentaazatetracyclo[14.3.1.1(3,7).1(9,13)]docosa-1(20),3(22),4,6,9(21),10,12,16,18-nonaen-12-yl]-2-[1-(1,3-oxazol-2-ylcarbonyl)piperidin-4-yl]acetamide bis(trifluoroacetate)] | 27 | 6.75 | 8.12 | 8.96 | 8.47 |  |  |  |  | 
12 | Cc1cnc2nc1Nc1cccc(c1)/C=C\c1cccc(c1)N2 [Example B1, (14Z)-6-Methyl-2,4,8,22-tetraazatetracyclo[14.3.1.1(3,7).1(9,13)]docosa-1(20),3(22),4,6,9(21),10,12,14,16,18-decaene trifluoroacetate] |  |  |  |  |  | < 7.00 | 8.29 | 7.96 | 7.77 | pIC50 [1, 10]: 6.10
13 | Clc1cnc2nc1Nc1cccc(c1)OCCc1cc(cc(-c3ccnc(N4CCNCC4)c3)c1)N2 [Example D27, 6-Chloro-19-(2-piperazin-1-ylpyridin-4-yl)-14-oxa-2,4,8,23-tetraazatetracyclo[15.3.1.1(3,7).1(9,13)]tricosa-1(21),3(23),4,6,9(22),10,12,17,19-nonaene tris(trifluoroacetate)] |  |  |  |  |  |  |  |  |  | pIC50 ([1]; Table D1, 90 μM ATP): 7.49; pIC50 ([2]; Table D1): 8.46; pIC50 ([3]; Table D1): 9.52; pIC50 ([4]; Table D1): 8.82; pIC50 ([5]; Table D1): 8.41
14 | O=C(NC1CCCC1)N1CCN(c2cc(-c3cc4cc(c3)Nc3ncc(Cl)c(n3)Nc3cccc(c3)OCC4)ccn2)CC1 [Example D46, 4-{4-[6-Chloro-14-oxa-2,4,8,23-tetraazatetracyclo[15.3.1.1(3,7).1(9,13)]tricosa-1(21),3(23),4,6,9(22),10,12,17,19-nonaen-19-yl]pyridin-2-yl}-N-cyclopentylpiperazine-1-carboxamide bis(trifluoroacetate)] |  |  |  |  |  |  |  |  |  | pIC50 ([1]; Table D1, 90 μM ATP): 6.41; pIC50 ([2]; Table D1): 7.68; pIC50 ([3]; Table D1): 9.05; pIC50 ([4]; Table D1): 8.33; pIC50 ([5]; Table D1): 8.09
15 | CN(C)C(=O)N1CCC(CC(=O)Nc2ccc3cc2CCc2cccc(c2)Nc2ncc(Cl)c(n2)N3)CC1 [Example A80, 4-(2-{[6-Chloro-2,4,8,22-tetraazatetracyclo[14.3.1.1(3,7).1(9,13)]docosa-1(20),3(22),4,6,9(21),10,12,16,18-nonaen-12-yl]amino}-2-oxoethyl)-N,N-dimethylpiperidine-1-carboxamide trifluoroacetate] | 21 | 7.21 | 8.36 | 8.09 | 8.28 |  |  |  |  | 
16 | Cc1cc(C(=O)N2CCC(NC(=O)Nc3ccc4cc3CCc3cccc(c3)Nc3ncc(Cl)c(n3)N4)CC2)no1 [Example B263, N-[6-Chloro-2,4,8,22-tetraazatetracyclo[14.3.1.1(3,7).1(9,13)]docosa-1(20),3(22),4,6,9(21),10,12,16,18-nonaen-12-yl]-N′-{1-[(5-methylisoxazol-3-yl)carbonyl]piperidin-4-yl}urea trifluoroacetate] |  |  |  |  |  | 6.96 | 8.03 | 8.17 | 7.66 | ALK % of inhibition at a concentration of 500 nM or 1 mM [1, 11]: 29%
